“Also recorded” adds a separate entry of the source. Read-outs that look alike come from different tables or passages of the source.
What was measured:
[1] = test system: human umbilical vein endothelial cells; test: Endothelial permeability assay: passage of FITC-conjugated dextran through thrombin-treated endothelial cell monolayers in transwells; format: cell-based; conditions: then thrombin 0.2 U/ml
Description: Cells were used at passage 4 or less. For infection with adenoviral constructs, cells were grown to 80% confluence and exposed to 2.5×10^6 plaque forming units/25 cm^2 culture area for 2 hours in M119 medium with 2% FCS and a further 22 hours with 20% FCS.
Endothelial cells (10^5) were cultured in transwells (3 μ-pore size, Corning Costar Corp, Cambridge, Mass., USA) for 24 hours in complete medium and then in 2% FCS medium for a further 24 hours. Cells were pre-treated with either bisindolylmaleimide I (10 nM or 6 μM), Calphostin C (100 nM), chelerythrine chloride (1 μM), H-89 (50 nM) or angiopoietin-1 (0.1 μg/ml), as required. FITC-conjugated dextran (0.2 μg) was added to the upper chamber of all wells and cells were then treated with thrombin (0.2 U/ml). […] Adenovirus infected ECs were plated on to transwells 24 hours after the above infection procedure and treated in the same manner as uninfected cells.

[2] = test system: protein kinase Cζ; test: Immunofluorescence staining of protein kinase Cζ localisation in endothelial cell monolayers; format: cell-based, human; conditions: for effect on thrombin stimulated protein kinase Cζ relocalisation to the membrane: then thrombin 0.2 U/ml
Description: (§1) Human umbilical vein endothelial cells were grown in M119 medium with 20% foetal calf serum (FCS) as described (Litwin, M., Clark, K., Noack, L., Furze, J., Berndt, M., Albelda, S., Vadas, M., Gamble, J. (1997) J Cell Biol. 139:219-28). Cells were used at passage 4 or less. For infection with adenoviral constructs, cells were grown to 80% confluence and exposed to 2.5×10^6 plaque forming units/25 cm^2 culture area for 2 hours in M119 medium with 2% FCS and a further 22 hours with 20% FCS.
(§2) 6×10^4 endothelial cells were cultured in fibronectin coated glass LabTek chamber slides (Nalge Nunc International, Naperville, Ill., USA) and incubated for 3 days prior to staining. Cells were then treated with angiopoietin-1, thrombin and/or bisindolylmaleimnide I, as required. Cells were washed once in PBS, fixed in 4% paraformnaldehyde/PBS for 5 minutes, permeabilized with acetone for 5 min at −20° C. and then washed twice with PBS. The fixed cells were incubated with rabbit anti-protein kinase Cζ immunoaffmity purified IgG or anti-protein kinase Cλ (BD Transduction Laboratories, San Diego, Calif., USA) overnight at 4° C. followed by FITC-conjugated anti-rabbit antibody (Rockland, Gilbertsville Pa., USA). Coverslips were mounted using fluorescent microscopy mounting medium (Dako Corp., Carpinteria, Calif., USA). Cells were imaged by epifluorescent microscopy on an Olympus BX-51 microscope (Olympus, Hamburg, Germany) equipped with excitation filters for fluorescein (494 nm) acquired to a Photometrics Cool Snap FX charge-coupled device camera (Roper Scientific GmbH, Germany). Images were adjusted for brightness and contrast using V^++ software (Digital Optics Ltd., Aucldand, New Zealand).

[3] = test system: protein kinase Cζ; test: Immunoblotting for phosphorylated Thr410 of over-expressed protein kinase Cζ in endothelial cells; format: cell-based, human; conditions: for effect on thrombin stimulated protein kinase Cζ phosphorylation (Thr410): then thrombin 0.2 U/ml, FLAG-protein kinase Cζ over-expressing cells
Description: as §1
Endothelial cells were plated into fibronectin coated flasks before infection as above. Following infection, cells were serum depleted (0.2% FCS) overnight. Cells were then treated with angiopoietin-1, thrombin and/or bisindolylmaleimide I, as required, lysed in ice-cold lysis buffer (50 mM Tris.HCl, pH 7.4, with 1% NP-40, 150 mM NaCl, 2 mM EGTA, 1 mM NaPO4, 100 mM NaF, 10 mM sodium pyrophosphate and protease inhibitor cocktail). Protein concentrations were assayed using Bradford Reagent (BioRad, Hercules, Calif., USA). Equal amounts of protein were loaded onto 10% acrylamide gels, separated by SDS-PAGE, transferred to PVDF membrane, blocked with 5% skim milk powder and 0.1% Triton-X100 in phosphate buffered saline, and probed with a polyclonal rabbit antibody directed against phosphorylated Thr410 of the activation loop of protein kinase Cζ (Chou, M. M., Hou, W., Johnson, J., Graham, L. K., Lee, M. H., Chen, C. S., Newton, A. C., Schaffhausen, B. S., Toker, A. (1998) Curr Biol. 8:1069-77). This antibody was a generous gift from Dr Alex Toker. After washing, membranes were incubated with anti-rabbit secondary antibody and reactive bands were detected by chemiluminescence (ECL Western Blotting Detection Reagents, Amersham Pharmacia Biotech, Little Chalfont, England, UK). Membranes were stripped using stripping buffer (Re-Blot Plus Western Blot Recycling Kit, Chemicon, Temecula Calif., USA) and re-probed with rabbit anti-protein kinase Cζ immunoaffinity purified IgG (Upstate Biotechnology, Lake Placid N.Y., USA).

[4] = test system: protein kinase C isoforms; conditions: cited from earlier work
[5] = test system: protein kinase Cλ; test: Immunofluorescence staining of protein kinase Cλ localisation in endothelial cell monolayers; format: cell-based, human; conditions: thrombin 0.2 U/ml alone, confluent monolayers
Description: as §1
as §2, with “Cells were imaged by epifluorescent microscopy on an Olympus BX-51 microscope (Olympus, Hamburg, Germany) equipped with excitation filters for fluorescein (494 nm) acquired to a Photometrics Cool Snap FX charge-coupled device camera (Roper Scientific GmbH, Germany). Images were adjusted for brightness and contrast using V^++ software (Digital Optics Ltd., Aucldand, New Zealand).” left out

Molecule: O=S(=O)(NCCNC/C=C/c1ccc(Br)cc1)c1cccc2cnccc12 [H-89]
- effect on thrombin stimulated endothelial cell permeability increase ([1]; 50 nM, pre-treated 15 mins): has no effect on thrombin induced permeability changes; also recorded: has no effect on thrombin-stimulated permeability increases

Molecule: CN(C)CCCn1cc(C2=C(c3c[nH]c4ccccc34)C(=O)NC2=O)c2ccccc21.Cl [bisindolylmaleimide I, Bisindolylmaleimide I hydrochloride]
- effect on thrombin stimulated endothelial cell permeability increase ([1]; 100 nM, pre-treated 15 mins): had no effect on the thrombin-induced increases of endothelial cell permeability
- effect on thrombin stimulated endothelial cell permeability increase ([1]; 6 μM, pre-treated 15 mins, hydrochloride): inhibited thrombin stimulation of endothelial cell permeability
- effect on thrombin stimulated endothelial cell permeability increase ([1]; 6 μM, pre-treated 15 mins, listed as Bisindolylmaleimide I, hydrochloride): blocks thrombin-stimulated permeability increases
- effect on thrombin stimulated protein kinase Cζ relocalisation to the membrane ([2]; 6 μM for 15 minutes): dramatically decreased
- effect on thrombin stimulated protein kinase Cζ phosphorylation (Thr410) ([3]; 6 μM for 15 minutes): inhibited thrombin stimulated protein kinase Cζ phosphorylation
- protein kinase C isoforms inhibited ([4]; 100 nM): inhibits classical and novel protein kinase C isoforms
- protein kinase C isoforms inhibited ([4]; 6 μM): inhibits all protein cinase C isoforms

Molecule: Calphostin C
- effect on thrombin stimulated endothelial cell permeability increase ([1]; 100 nM, pre-treated 15 mins): had no effect on the thrombin-induced increases of endothelial cell permeability; also recorded: does not block thrombin-stimulated permeability increases

Molecule: Thrombin
- protein kinase Cζ localisation ([2]; thrombin 0.2 U/ml alone, confluent monolayers): localized to the cell membrane
- phosphorylation of over-expressed protein kinase Cζ (Thr410) ([3]; thrombin 0.2 U/ml for 15 minutes alone): increased the phosphorylation of over-expressed protein kinase Cζ
- protein kinase Cλ localisation [5]: remained evenly distributed

B1: Angiopoietin-1 (protein, UniProt Q15389 16-498, looked up)
Angiopoietin-1: HIGCSNQRRSPENSGRRYNRIQHGQCAYTFILPEHDGNCRESTTDQYNTNALQRDAPHVEPDFSSQKLQHLEHVMENYTQWLQKLENYIVENMKSEMAQIQQNAVQNHTATMLEIGTSLLSQTAEQTRKLTDVETQVLNQTSRLEIQLLENSLSTYKLEKQLLQQTNEILKIHEKNSLLEHKILEMEGKHKEELDTLKEEKENLQGLVTRQTYIIQELEKQLNRATTNNSVLQKQQLELMDTVHNLVNLCTKEGVLLKGGKREEEKPFRDCADVYQAGFNKSGIYTIYINNMPEPKKVFCNMDVNGGGWTVIQHREDGSLDFQRGWKEYKMGFGNPSGEYWLGNEFIFAITSQRQYMLRIELMDWEGNRAYSQYDRFHIGNEKQNYRLYLKGHTGTAGKQSSLILHGADFSTKDADNDNCMCKCALMLTGGWWFDACGPSNLNGMFYTAGQNHGKLNGIKWHYFKGPSYSLRSTTMMIRPLDF
notes: Angiopoietin-1, obtained from Regeneron Inc
- effect on thrombin stimulated endothelial cell permeability increase ([1]; 0.1 μg/ml, pre-treated 30 min): inhibiting thrombin stimulated endothelial cell permeability increases
- effect on thrombin stimulated endothelial cell permeability increase ([1]; 0.1 μg/ml, pre-treated 30 min, listed as Angiopoietin-1): can inhibit the thrombin-induced increase of endothelial cell permeability
- effect on thrombin stimulated protein kinase Cζ relocalisation to the membrane ([2]; 0.1 μg/ml for 30 minutes): dramatically decreased; also recorded: blocking thrombin stimulated protein kinase Cζ relocalisation
- effect on thrombin stimulated protein kinase Cζ phosphorylation (Thr410) ([3]; 0.1 μg/ml for 30 minutes): inhibited thrombin stimulated protein kinase Cζ phosphorylation; also recorded: blocking thrombin stimulated protein kinase Cζ phoshorylation

From patent publication US20060111286A1, “Method of modulating endothelial cell activity” (priority 2002, published 2006)
